Assay results reported in PubChem BioAssay (NCI).
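Method: 48-hour compound exposure of cells in 96-well plates, five concentrations, linear interpolation of endpoints. TGI marks complete inhibition of growth.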

What was measured:
Test in all cases: NCI tumour cell line growth inhibition, 48 h
786-0 renal = system: 786-0 renal
A498 renal = system: A498 renal
A549 NSCLC = system: A549 NSCLC
ACHN renal = system: ACHN renal
BT-549 breast = system: BT-549 breast
CAKI-1 renal = system: CAKI-1 renal
CCRF-CEM leukemia = system: CCRF-CEM leukemia
COLO 205 colon = system: COLO 205 colon
DU-145 prostate = system: DU-145 prostate
EKVX NSCLC = system: EKVX NSCLC
HCC-2998 colon = system: HCC-2998 colon
HCT-116 colon = system: HCT-116 colon
HCT-15 colon = system: HCT-15 colon
HOP-62 NSCLC = system: HOP-62 NSCLC
HOP-92 NSCLC = system: HOP-92 NSCLC
HS 578T breast = system: HS 578T breast
HT29 colon = system: HT29 colon
IGROV1 ovarian = system: IGROV1 ovarian
KM12 colon = system: KM12 colon
LOX IMVI melanoma = system: LOX IMVI melanoma
M14 melanoma = system: M14 melanoma
MALME-3M melanoma = system: MALME-3M melanoma
MCF7 breast = system: MCF7 breast
MDA-MB-231 breast = system: MDA-MB-231 breast
MDA-MB-435 = system: MDA-MB-435
MDA-N = system: MDA-N
MOLT-4 leukemia = system: MOLT-4 leukemia
NCI-H226 lung = system: NCI-H226 lung
NCI-H23 lung = system: NCI-H23 lung
NCI-H460 lung = system: NCI-H460 lung
NCI-H522 lung = system: NCI-H522 lung
NCI/ADR-RES ovarian = system: NCI/ADR-RES ovarian
OVCAR-3 ovarian = system: OVCAR-3 ovarian
OVCAR-4 ovarian = system: OVCAR-4 ovarian
OVCAR-5 ovarian = system: OVCAR-5 ovarian
OVCAR-8 ovarian = system: OVCAR-8 ovarian
PC-3 prostate = system: PC-3 prostate
RXF 393 renal = system: RXF 393 renal
SF-268 CNS = system: SF-268 CNS
SF-295 CNS = system: SF-295 CNS
SF-539 CNS = system: SF-539 CNS
SK-MEL-2 melanoma = system: SK-MEL-2 melanoma
SK-MEL-28 melanoma = system: SK-MEL-28 melanoma
SK-MEL-5 melanoma = system: SK-MEL-5 melanoma
SK-OV-3 ovarian = system: SK-OV-3 ovarian
SN12C renal = system: SN12C renal
SNB-19 CNS = system: SNB-19 CNS
SNB-75 CNS = system: SNB-75 CNS
SR leukemia = system: SR leukemia
SW-620 colon = system: SW-620 colon
T-47D breast = system: T-47D breast
TK-10 renal = system: TK-10 renal
U251 CNS = system: U251 CNS
UACC-257 melanoma = system: UACC-257 melanoma
UACC-62 melanoma = system: UACC-62 melanoma
UO-31 renal = system: UO-31 renal

Measured: TGI

O=C(Cc1nc2ccc([N+](=O)[O-])cc2[nH]c1=O)C(=O)Nc1cc(Cl)c(Cl)cc1Cl
> 100 µM: all assays above
